US20260250250A1, “3-(SULPHONYL OR SULFONIMIDOYL)PROP-2-EN-1-YL]-2-OXO-1,2-DIHYDROPYRIDINE-3-CARBOXAMIDE DERIVATIVES” (Flinder Therapeutics B.V., priority 2022, published 2026)

Key:
[1] = test system: bladder carcinoma RT4 cell line; experiment: TNF-α-induced cytotoxicity assay (CellTiter-Glo viability); format: cell-based; details: Homo sapiens, RT-4, 72 h
Protocol: A viability assay, using bladder carcinoma RT4 cell line, was used for identifying the potential inhibitory effect of tested compounds on HOIP activity. The viability was determined by CellTiter-Glo Luminescent Cell Viability Assay (G7571, Promega) which measures the ability of generating a luminescent signal proportional to the amount of ATP present in living cells. The assay consists of a few steps: • a) the cells were routinely sub cultivated twice a week with standard complete growth medium composition; • b) cells were preparated for the assay by creating a cell suspension at the density of 0.05 mln cells/mL and dispensed into plates (ViewPlate-384, PerkinElmer) resulting in 1000 cells/well; • c) cells were stimulated with 1.25 ng/mL TNFα and with compounds and incubated for 72 h at 37° C. in the atmosphere with 5% CO2; and • d) for detection cytotoxicity was measured with CellTiter-Glo® Luminescent Cell Viability Assay based on the method described by the manufacturer.

NF-κB signaling pathway = experiment: Cell-based dual luciferase NF-κB reporter assay (HEK293 cells, TNF stimulated); details: Homo sapiens, HEK293
Protocol: Dual-luciferase reporter assay was designed to find inhibitors of HOIP affecting NF-κB signaling pathway. The assay was performed in HEK293 cells which were transfected with plasmids coding for Firefly and NanoLuc luciferases. The NanoLuc luciferase plasmid contains NF-κB response element which determines its expression.
The assay was run following standard dual-luciferase protocols. The assay consists of a few steps: • compounds were dispensed at a concentration range: 100-0.005 μM with a final DMSO concentration of 1% of final volume (25 μL); • cells were stimulated after 30 min with 2.5 ng/mL TNF; and • after 6 h Firefly and NanoLuc luciferase activities are determined according to the procedure described by the manufacturer of Nano-Glo Dual-Luciferase Reporter Assay System.

[2] = molecular target: T1, human E3 ubiquitin-protein ligase RNF31 (HOIP) (Homo sapiens, UniProt Q96EP0); experiment: Cell-free HTRF-based HOIP inhibition assay; format: biochemical
T1 sequence (Q96EP0 695-1072 limits assumed): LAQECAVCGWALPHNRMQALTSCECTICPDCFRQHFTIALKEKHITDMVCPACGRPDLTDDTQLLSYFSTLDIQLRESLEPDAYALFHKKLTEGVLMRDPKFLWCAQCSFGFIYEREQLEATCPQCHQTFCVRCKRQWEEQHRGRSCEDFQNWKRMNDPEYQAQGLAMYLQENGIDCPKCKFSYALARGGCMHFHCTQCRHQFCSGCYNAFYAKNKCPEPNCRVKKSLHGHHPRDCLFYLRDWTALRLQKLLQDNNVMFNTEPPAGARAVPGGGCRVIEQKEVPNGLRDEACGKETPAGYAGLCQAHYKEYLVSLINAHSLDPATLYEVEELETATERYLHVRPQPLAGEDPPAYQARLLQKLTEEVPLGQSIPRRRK
Protocol: This assay was performed in the following steps: • a) synthesis of recombinant fragment of human E3 ubiquitin-protein ligase RNF31 (HOIP), expressed with purity >90% in E. coli system (the protein was prepared as 1 mg/mL stock in a standard formulation); • b) incubation of the compounds in a typical concentration range: 100-0.005 μM, at a final DMSO conc. 1% with a mixture of HOIP and ubiquitin activating enzyme E1 at 25° C., for 1 h at 25° C.; • c) followed by addition of a ubiquitination solution including E2 and substrates (the reaction proceeds for 2.5 h at 25° C.); and • d) HTRF detection was performed using a PHERAstar FSX (BMG Labtech) plate reader (excitation at 337 nm, dual emissions at 665 and 620 nm).

Row | SMILES | IC50 [1] [µM] | IC50 (NF-κB signaling pathway) [µM] | IC50 [2] [µM]
1 | N=S(=O)(/C=C/CNC(=O)c1cc2c([nH]c1=O)CCCC2)c1cccc(Oc2ccccc2)c1 (stereo not shown) [Example 146, N-[(2E)-3-[imino(oxo)(3-phenoxyphenyl)-λ^6-sulfanyl]prop-2-en-1-yl]-2-oxo-1,2,5,6,7,8-hexahydroquinoline-3-carboxamide] | ≤ 1 | ≤ 1 | ≤ 0.1
2 | CC1(C(=O)N2CCc3[nH]c(=O)c(C(=O)NC/C=C/S(=O)(=O)c4ccccc4)cc3C2)CCC1 [Example 115, N-[(2E)-3-(benzenesulfonyl)prop-2-en-1-yl]-6-(1-methylcyclobutanecarbonyl)-2-oxo-1,2,5,6,7,8-hexahydro-1,6-naphthyridine-3-carboxamide] | ≤ 100 | ≤ 100 | ≤ 1
3 | O=C(NC/C=C/S(=O)(=O)c1ccc(Cl)cc1)c1cc2c([nH]c1=O)CCN(C(=O)OCCF)C2 [Example 93, 2-fluoroethyl 3-{[(2E)-3-(4-chlorobenzenesulfonyl)prop-2-en-1-yl]carbamoyl}-2-oxo-1,2,5,6,7,8-hexahydro-1,6-naphthyridine-6-carboxylate] | ≤ 1 | ≤ 1 | ≤ 0.1
4 | O=C(NC/C=C/S(=O)(=O)c1ccc(Cl)cc1)c1cc2c([nH]c1=O)CCCC2 [Example 21, N-[(2E)-3-(4-chlorobenzenesulfonyl)prop-2-en-1-yl]-2-oxo-1,2,5,6,7,8-hexahydroquinoline-3-carboxamide] | ≤ 1 | ≤ 0.1 | ≤ 0.1
5 | O=C(NC/C=C/S(=O)(=O)c1ccc(F)cc1F)c1cc2c([nH]c1=O)CCC2 [Example 42, N-[(2E)-3-(2,4-difluorobenzenesulfonyl)prop-2-en-1-yl]-2-oxo-1H,2H,5H,6H,7H-cyclopenta[b]pyridine-3-carboxamide] | ≤ 1 | ≤ 10 | ≤ 1
6 | N=S(=O)(/C=C/CNC(=O)c1cc2c([nH]c1=O)CCN(C(=O)OCC(F)F)C2)c1ccccc1 (stereo not shown) [Example 182, 2,2-difluoroethyl 3-{[(2E)-3-[imino(oxo)phenyl-λ^6-sulfanyl]prop-2-en-1-yl]carbamoyl}-2-oxo-1,2,5,6,7,8-hexahydro-1,6-naphthyridine-6-carboxylate] | ≤ 10 | ≤ 100 | ≤ 1
7 | O=C(NC/C=C/S(=O)(=O)c1ccccc1)c1cc2c([nH]c1=O)CCN(C(=O)CC1CC1)C2 [Example 117, N-[(2E)-3-(benzenesulfonyl)prop-2-en-1-yl]-6-(2-cyclopropylacetyl)-2-oxo-1,2,5,6,7,8-hexahydro-1,6-naphthyridine-3-carboxamide] | ≤ 100 | ≤ 100 | ≤ 1
8 | O=C(NC/C=C/S(=O)(=O)c1ccccc1)c1cc2c([nH]c1=O)CCC2 [Example 43, N-[(2E)-3-(benzenesulfonyl)prop-2-en-1-yl]-2-oxo-1H,2H,5H,6H,7H-cyclopenta[b]pyridine-3-carboxamide] | ≤ 10 | ≤ 10 | ≤ 0.1
9 | CCOc1ccc(S(=N)(=O)/C=C/CNC(=O)c2cc3c([nH]c2=O)CCCC3)cc1 (stereo not shown) [Example 62, N-[(2E)-3-[(4-ethoxyphenyl)(imino)oxo-λ^6-sulfanyl]prop-2-en-1-yl]-2-oxo-1,2,5,6,7,8-hexahydroquinoline-3-carboxamide] | ≤ 1 | ≤ 1 | –
10 | COCCOC(=O)N1CCc2[nH]c(=O)c(C(=O)NC/C=C/S(=O)(=O)c3ccccc3)cc2C1 [Example 80, 2-Methoxyethyl 3-{[(2E)-3-(benzenesulfonyl)prop-2-en-1-yl]carbamoyl}-2-oxo-1,2,5,6,7,8-hexahydro-1,6-naphthyridine-6-carboxylate] | ≤ 10 | ≤ 100 | ≤ 1
11 | CN(C)c1ccc(S(=N)(=O)/C=C/CNC(=O)c2cc3c([nH]c2=O)CCCC3)cc1 (stereo not shown) [Example 141, N-[(2E)-3-{[4-(dimethylamino)phenyl](imino)oxo-λ^6-sulfanyl}prop-2-en-1-yl]-2-oxo-1,2,5,6,7,8-hexahydroquinoline-3-carboxamide] | ≤ 1 | ≤ 1 | –
12 | O=C(NC/C=C/S(=O)(=O)c1ccccc1)c1cc2c([nH]c1=O)CCCCC2 [Example 38, N-[(2E)-3-(benzenesulfonyl)prop-2-en-1-yl]-2-oxo-1H,2H,5H,6H,7H,8H,9H-cyclohepta[b]pyridine-3-carboxamide] | ≤ 1 | ≤ 1 | ≤ 1
13 | O=C(NC/C=C/S(=O)(=O)c1ccccc1F)c1cc2c([nH]c1=O)CCCC2 [Example 24, N-[(2E)-3-(2-fluorobenzenesulfonyl)prop-2-en-1-yl]-2-oxo-1,2,5,6,7,8-hexahydroquinoline-3-carboxamide] | ≤ 1 | ≤ 1 | ≤ 0.1
14 | O=C(NC/C=C/S(=O)(=O)c1ccc(Cl)cc1Cl)c1cc2c([nH]c1=O)CCCC2 [Example 32, N-[(2E)-3-(2,4-dichlorobenzenesulfonyl)prop-2-en-1-yl]-2-oxo-1,2,5,6,7,8-hexahydroquinoline-3-carboxamide] | ≤ 1 | ≤ 1 | ≤ 0.1
15 | O=C(NC/C=C/S(=O)(=O)c1ccc(Cl)cc1)c1cc2c([nH]c1=O)CCN(C(=O)NCC1CC1)C2 [Example 100, N3-[(2E)-3-(4-chlorobenzenesulfonyl)prop-2-en-1-yl]-N6-(cyclopropylmethyl)-2-oxo-1,2,5,6,7,8-hexahydro-1,6-naphthyridine-3,6-dicarboxamide] | ≤ 100 | ≤ 100 | ≤ 1
16 | O=C(NC/C=C/S(=O)(=O)c1ccc(Cl)cc1)c1cc2c([nH]c1=O)CCN(C(=O)OCC(F)F)C2 [Example 96, 2,2-difluoroethyl 3-{[(2E)-3-(4-chlorobenzenesulfonyl)prop-2-en-1-yl]carbamoyl}-2-oxo-1,2,5,6,7,8-hexahydro-1,6-naphthyridine-6-carboxylate] | ≤ 10 | ≤ 1 | ≤ 1
17 | Cc1ccc(S(=N)(=O)/C=C/CNC(=O)c2cc3c([nH]c2=O)CCCC3)cc1C (stereo not shown) [Example 58, N-[(2E)-3-[(3,4-dimethylphenyl)(imino)oxo-λ^6-sulfanyl]prop-2-en-1-yl]-2-oxo-1,2,5,6,7,8-hexahydroquinoline-3-carboxamide] | ≤ 1 | ≤ 1 | ≤ 0.1
18 | O=C(NC/C=C/S(=O)(=O)c1ccccc1)c1cc2cccnc2[nH]c1=O [Example 47, N-[(2E)-3-(benzenesulfonyl)prop-2-en-1-yl]-2-oxo-1,2-dihydro-1,8-naphthyridine-3-carboxamide] | ≤ 10 | ≤ 10 | ≤ 1
19 | CC(C)(C)c1ccc(S(=N)(=O)/C=C/CNC(=O)c2cc3c([nH]c2=O)CCCC3)cc1 (stereo not shown) [Example 61, N-[(2E)-3-[(4-tert-butylphenyl)(imino)oxo-λ^6-sulfanyl]prop-2-en-1-yl]-2-oxo-1,2,5,6,7,8-hexahydroquinoline-3-carboxamide] | ≤ 1 | ≤ 1 | –
20 | COc1ccc(S(=N)(=O)/C=C/CNC(=O)c2cc3c([nH]c2=O)CCC(C(C)C)C3)cc1F (stereo not shown) [Example 144, N-[(2E)-3-[(3-fluoro-4-methoxyphenyl)(imino)oxo-λ^6-sulfanyl]prop-2-en-1-yl]-2-oxo-6-(propan-2-yl)-1,2,5,6,7,8-hexahydroquinoline-3-carboxamide] | ≤ 1 | ≤ 1 | –
21 | COc1ccc(S(=N)(=O)/C=C/CNC(=O)c2cc3c([nH]c2=O)CCCC3)cc1 (stereo not shown) [Example 57, N-[(2E)-3-[imino(4-methoxyphenyl)oxo-λ^6-sulfanyl]prop-2-en-1-yl]-2-oxo-1,2,5,6,7,8-hexahydroquinoline-3-carboxamide] | ≤ 1 | ≤ 1 | –
